Drawing on ChEMBL document CHEMBL1150619, “Minor steroidal alkaloids from the marine sponge Corticium sp” (J Nat Prod, 2002), this text covers IC50 for four compounds.

The nature of assay [1]: Cytotoxicity against mouse RAW264 cells assessed as cell viability after 24 hrs by MTT assay. The class given is functional, cell-based. (Formazan colour is commonly taken as a measure of viable cells.)
Another assay concerns C6. Put plainly: Cytotoxicity against rat C6 cells assessed as cell viability after 24 hrs by MTT assay. The class given is functional, cell-based. The note with it: C6, 24 h.
Setting [2] is: Mus musculus, RAW264.7, 24 h, read-out: IC50.

Converted amounts (≈) assume the structure as drawn.

As to `CC(C)C1=CC(=O)N/C1=C\[C@@H](C)[C@H]1CC[C@H]2C3=CC[C@H]4C[C@H](N)CC[C@]4(C)[C@H]3CC[C@]12C` [PLAKINAMINE G], the concentration for half-maximal inhibition (IC50) entry is “Not Active” in assay [1] (raw264) and 6.8 µg/mL (≈ 15.6 µM) in the assay with C6.
For the compound `CC1=C(/C=C/[C@@H](C)[C@H]2CC[C@H]3C4=CC[C@H]5C(=O)[C@@H](N(C)C)CC[C@]5(C)[C@H]4CC[C@]23C)CCNC1` [PLAKINAMINE H], the figures for the IC50 (in assay [1] (setting [2]); in the assay on C6) were 61 µg/mL (≈ 131 µM) and 9 µg/mL (≈ 19.4 µM), respectively.
In the same order, the values of `CC1=C(/C=C/[C@@H](C)[C@H]2CC[C@H]3C4=CC[C@H]5[C@H](O)[C@H](N)CC[C@]5(C)[C@H]4CC[C@]23C)CCN(C)C1` [4ALPHA-HYDROXYDEMETHYLPLAKINAMINE B] are 16.2 µg/mL (≈ 35.8 µM) and 26.1 µg/mL (≈ 57.7 µM).
On to `CC(C)C1CCNC1C[C@@H](C)[C@H]1CC[C@H]2C3=CC[C@H]4C[C@H](N)CC[C@]4(C)[C@H]3CC[C@]12C` (stereo partly drawn) [TETRAHYDROPLAKINAMINE A], for which the IC50 result is “Not Active” in assay [1] (raw264) and 1.4 µg/mL (≈ 3.28 µM) in the assay with C6.

In general, IC50 refers to the concentration that gives 50% inhibition.
